Experimental data from PMC9607164, “Rational Design, Synthesis and Biological Evaluation of Novel Pyrazoline-Based Antiproliferative Agents in MCF-7 Cancer Cells” (Pharmaceuticals, 2022).
Values joined by “and” are separate entries in the source; they are usually repeats but may differ in a detail not shown here. Identical values can stand only once. Like-named read-outs stand apart in the source and are kept apart here.

What was measured:
[1] = system: mutant EGFR (L858R); set-up: method as in PMID 35427766; settings: allosteric inhibitor; cited from earlier work
[2] = system: EGFR; set-up: method as in PMID 33872924; settings: reported phenylthiazole derivative; cited from earlier work
[3] = system: MCF-7 cancer cells; assay: MTT cytotoxicity assay on MCF-7; format: cell-based; settings: for LogIC50 MCF-7: Figure 4 curve fit, cell viability vs. log [conc. µM]; for IC50: MTT assay, 48 h, n = 3, NA: Non-Active, read-out: IC50 ± SD, MCF-7
Description: (§1) Both breast cancer (MCF-7) and normal breast (MCF-10A) cells were purchased from National Research Institute, Egypt, and maintained in complete media of RPMI-1640 medium L-Glutamine (Lonza Verviers SPRL, Belgium, cat#12-604F). Cells were incubated following standard tissue culture work. Cell viability was measured 48 h later, utilizing MTT colorimetric assay (Promega, Madison, WI, USA). Absorbance was consequently assessed (at 570 nm) using an ELISA microplate reader (BIO-RAD, model iMark, Tokyo, Japan). Using GraphPad Prism 7, the IC50 values were determined, and the viability at each concentration was determined in comparison to the control.

[4] = system: MCF-10A normal breast cells; assay: MTT cytotoxicity assay on MCF-10A; format: cell-based; settings: Homo sapiens, 48 h, n = 3, read-out: IC50 ± SD, MCF-10A
Description: as §1

[5] = target: T1, EGFR Kinase (Homo sapiens, UniProt P00533); assay: EGFR Kinase Assay Kit (BPS Bioscience); format: biochemical; settings: mean ± SD of three replicates, five concentrations
T1 construct: purchased BPS Bioscience 40321
T1 sequence (P00533 25-1210): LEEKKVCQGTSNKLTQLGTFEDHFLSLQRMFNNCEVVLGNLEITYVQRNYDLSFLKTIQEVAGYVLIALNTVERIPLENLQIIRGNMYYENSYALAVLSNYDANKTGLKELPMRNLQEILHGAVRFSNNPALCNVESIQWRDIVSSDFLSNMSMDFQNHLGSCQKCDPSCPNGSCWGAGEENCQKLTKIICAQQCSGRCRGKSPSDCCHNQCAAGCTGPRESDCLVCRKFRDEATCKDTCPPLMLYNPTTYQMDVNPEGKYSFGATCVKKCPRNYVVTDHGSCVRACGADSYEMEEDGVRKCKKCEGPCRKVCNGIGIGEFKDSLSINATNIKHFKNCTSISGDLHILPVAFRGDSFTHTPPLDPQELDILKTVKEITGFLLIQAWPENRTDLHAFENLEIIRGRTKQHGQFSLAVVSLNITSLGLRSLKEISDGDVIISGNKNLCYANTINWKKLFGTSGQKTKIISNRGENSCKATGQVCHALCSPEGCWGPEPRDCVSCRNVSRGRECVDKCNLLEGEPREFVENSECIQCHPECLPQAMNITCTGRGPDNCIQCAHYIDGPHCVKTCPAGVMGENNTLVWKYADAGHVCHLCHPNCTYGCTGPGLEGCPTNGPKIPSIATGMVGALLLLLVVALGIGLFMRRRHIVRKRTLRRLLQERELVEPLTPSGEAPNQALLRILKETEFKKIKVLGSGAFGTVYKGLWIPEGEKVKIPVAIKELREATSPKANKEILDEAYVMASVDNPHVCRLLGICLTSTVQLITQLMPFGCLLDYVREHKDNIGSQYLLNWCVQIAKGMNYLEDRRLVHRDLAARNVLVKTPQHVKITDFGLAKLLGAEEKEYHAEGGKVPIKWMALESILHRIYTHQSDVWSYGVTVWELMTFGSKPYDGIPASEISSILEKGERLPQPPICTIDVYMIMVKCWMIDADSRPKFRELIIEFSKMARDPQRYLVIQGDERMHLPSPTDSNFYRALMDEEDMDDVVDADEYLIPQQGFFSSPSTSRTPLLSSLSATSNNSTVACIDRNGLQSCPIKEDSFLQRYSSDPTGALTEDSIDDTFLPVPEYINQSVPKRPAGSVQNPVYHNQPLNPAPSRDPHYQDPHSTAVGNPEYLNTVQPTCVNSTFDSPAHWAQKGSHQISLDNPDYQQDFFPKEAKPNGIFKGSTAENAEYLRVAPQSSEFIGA
Description: (§2) Compounds’ autophosphorylation percentage inhibition was computed according to the following equation: […] , then IC50 values were calculated using GraphPad prism software.

[6] = system: MCF-7 cells; assay: Annexin V/PI staining flow cytometry; format: cell-based; settings: MCF-7, treated at IC50, 48 h; for late apoptosis: AV+/PI+; for early apoptosis: AV+/PI−; for apoptotic cell death (total): control 0.68%
Description: MCF-7 breast cancer cells were seeded into 6-well culture plates (3–5 × 10^5 cells/well) and incubated for 24 h. […] After that, the collection of the media supernatants and the cells was performed before undergoing rinsing with ice-cold PBS. The cells were suspended in 100 µL of annexin-binding buffer solution “25 mM CaCl2, 1.4 M NaCl, and 0.1 M Hepes/NaOH, pH 7.4” and incubated with “Annexin V-FITC solution (1:100) and propidium iodide (PI)” at a concentration equal 10 µg/mL in the dark for 30 min. Stained cells were then obtained by a Cytoflex FACS machine, and data analysis was performed using cytExpert software.

[7] = system: MCF-7 cells; assay: DNA content flow cytometry cell cycle analysis; format: cell-based; settings: MCF-7 after treatment
[8] = system: Bax; assay: RT-PCR gene expression in MCF-7 cells; format: cell-based; settings: MCF-7, IC50, 48 h, normalized to β-actin, untreated = 1
Description: (§3) Furthermore, to explore the apoptotic pathway, gene expression of proapoptotic genes (P53, Bax, Caspapses-3,8,9) and antiapoptotic gene (Bcl-2) was evaluated using routine RT-PCR in the untreated and treated MCF-7 cells. Ct values were calculated to determine the relative genes expression in all samples by normalization to β-actin (housekeeping gene).

[9] = system: Bcl-2; assay: RT-PCR gene expression in MCF-7 cells; format: cell-based; settings: MCF-7, IC50, 48 h, normalized to β-actin, untreated = 1
Description: as §3

[10] = system: Casp-3; assay: RT-PCR gene expression in MCF-7 cells; format: cell-based; settings: MCF-7, IC50, 48 h, normalized to β-actin, untreated = 1
Description: as §3

[11] = system: Casp-8; assay: RT-PCR gene expression in MCF-7 cells; format: cell-based; settings: MCF-7, IC50, 48 h, normalized to β-actin, untreated = 1
Description: as §3

[12] = system: Casp-9; assay: RT-PCR gene expression in MCF-7 cells; format: cell-based; settings: MCF-7, IC50, 48 h, normalized to β-actin, untreated = 1
Description: as §3

[13] = system: P53; assay: RT-PCR gene expression in MCF-7 cells; format: cell-based; settings: MCF-7, IC50, 48 h, normalized to β-actin, untreated = 1
Description: as §3

[14] = system: MCF-7 cells (Xenograft model); format: in vivo, mice; settings: 10 mg/kg BW, IP
Source text: In vivo experiments for lethal dose (LD50), experimental design, tumor mass, blood parameters, histopathological examinations were accomplished as previously described. After inoculating the tumor cells, masses of the solid tumor started to appear ten days later. […] Animals from each group were sacrificed, and their blood was drawn to measure hemoglobin (Hb), red blood cell (RBC), white blood cell (WBC), and liver enzymes (ALT, AST, albumin, and total protein) levels.

[15] = format: in vivo
Source text: In vivo experiments for lethal dose (LD50), experimental design, tumor mass, blood parameters, histopathological examinations were accomplished as previously described. After inoculating the tumor cells, masses of the solid tumor started to appear ten days later. […]. Animals from each group were sacrificed, and their blood was drawn to measure hemoglobin (Hb), red blood cell (RBC), white blood cell (WBC), and liver enzymes (ALT, AST, albumin, and total protein) levels.

[16] = target: T2, HER2 Kinase (Homo sapiens, UniProt P04626); assay: HER2 Kinase Assay Kit (BPS Bioscience); format: biochemical; settings: mean ± SD of three replicates, five concentrations
T2 construct: purchased BPS Bioscience 40721
T2 sequence (P04626 23-1255): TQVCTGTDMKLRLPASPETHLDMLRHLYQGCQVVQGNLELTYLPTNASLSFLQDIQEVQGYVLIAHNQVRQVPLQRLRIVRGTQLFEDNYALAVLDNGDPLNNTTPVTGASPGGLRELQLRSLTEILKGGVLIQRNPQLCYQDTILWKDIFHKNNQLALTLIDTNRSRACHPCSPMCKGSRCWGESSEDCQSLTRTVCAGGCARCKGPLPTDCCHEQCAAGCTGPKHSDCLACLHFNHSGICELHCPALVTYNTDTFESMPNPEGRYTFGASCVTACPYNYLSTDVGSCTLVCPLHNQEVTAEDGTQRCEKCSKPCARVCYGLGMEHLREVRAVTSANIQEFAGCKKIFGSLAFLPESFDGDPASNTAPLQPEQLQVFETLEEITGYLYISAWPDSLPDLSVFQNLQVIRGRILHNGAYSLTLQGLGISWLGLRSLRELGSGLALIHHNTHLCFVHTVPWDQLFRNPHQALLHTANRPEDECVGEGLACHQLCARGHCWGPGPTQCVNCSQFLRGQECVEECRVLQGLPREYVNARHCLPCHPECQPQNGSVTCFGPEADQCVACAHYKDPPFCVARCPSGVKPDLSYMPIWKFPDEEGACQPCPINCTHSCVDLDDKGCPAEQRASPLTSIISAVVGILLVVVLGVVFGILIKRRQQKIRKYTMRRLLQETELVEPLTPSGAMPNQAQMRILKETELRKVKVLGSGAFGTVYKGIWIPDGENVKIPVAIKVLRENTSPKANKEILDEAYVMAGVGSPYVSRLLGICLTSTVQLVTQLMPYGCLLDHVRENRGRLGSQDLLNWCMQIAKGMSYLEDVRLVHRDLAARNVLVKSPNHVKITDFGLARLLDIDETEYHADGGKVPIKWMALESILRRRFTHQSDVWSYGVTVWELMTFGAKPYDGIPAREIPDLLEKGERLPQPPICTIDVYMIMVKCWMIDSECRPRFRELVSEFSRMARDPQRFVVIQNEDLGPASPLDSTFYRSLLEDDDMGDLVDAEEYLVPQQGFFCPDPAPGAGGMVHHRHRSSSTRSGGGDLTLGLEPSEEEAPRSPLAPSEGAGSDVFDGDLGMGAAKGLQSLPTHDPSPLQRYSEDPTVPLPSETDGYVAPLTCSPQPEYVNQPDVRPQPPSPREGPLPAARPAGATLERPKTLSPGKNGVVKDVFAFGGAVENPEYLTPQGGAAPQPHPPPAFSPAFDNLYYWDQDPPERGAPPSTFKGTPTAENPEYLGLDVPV
Description: as §2

| Structure (SMILES) | LogIC50 MCF-7 [3] | IC50 ([3]; Homo sapiens, MCF7, 48 h) [µM] | IC50 [3] [µM] | IC50 [4] [µM] | IC50 [5] [µM] | late apoptosis [6] [%] | early apoptosis [6] [%] | apoptotic cell death (total) [6] [%] | Fold Change = 2^−ΔΔCT, Bax [8] | Fold Change = 2^−ΔΔCT, Bcl-2 [9] | Fold Change = 2^−ΔΔCT, Casp-3 [10] | Fold Change = 2^−ΔΔCT, Casp-8 [11] | Fold Change = 2^−ΔΔCT, Casp-9 [12] | Fold Change = 2^−ΔΔCT, P53 [13] | further results |
| --- | --- | --- | --- | --- | --- | --- | --- | --- | --- | --- | --- | --- | --- | --- | --- |
| O=C(Nc1nccs1)C(c1cc(F)ccc1O)N1Cc2ccccc2C1=O (stereo not shown) [EAI045] |  |  |  |  |  |  |  |  |  |  |  |  |  |  | IC50 [1]: 0.019 µM |
| COc1ccc(-c2csc(NC(=O)CSc3nc(-c4ccc(OC)cc4)c(C#N)c(=O)[nH]3)n2)cc1 [VI] |  |  |  |  |  |  |  |  |  |  |  |  |  |  | IC50 [2]: 0.19 µM |
| COc1ccc(C2CC(c3ccc(OC)c(OC)c3)=NN2c2nc(-c3ccccc3)cs2)cc1 (stereo not shown) [Compound 6e, 2-(3-(3,4-Dimethoxyphenyl)-5-(4-methoxyphenyl)-4,5-dihydro-1H-pyrazol-1-yl)-4-phenylthiazole] | 0.862 | 7.28 | 7.21 ± 0.48 | ≥ 50 | 0.009 ± 0.001 | 18.52 | 9.47 | 27.99 | 6.39 fold and 6.39 ± 0.8 fold | 0.22 ± 0.06 fold | 7.12 fold and 7.12 ± 0.53 fold | 1.71 fold and 1.71 ± 0.18 fold | 8.19 fold and 8.19 ± 0.32 fold | 4.85 ± 0.4 fold | percentage of cells in the S phase ([7]; control 34.18): 44.52%; tumor inhibition ratio ([14]; seven administrations): 52.46%; tumor volume ([14]; decreased from 89.8): 28.4 mm^3; mice weight ([15]; 10 mg/kg BW, IP, MCF-7 control 32.28 g, normal 24.5 g): 28.23 g; histopathological examination of liver sections ([15]; mouse, in vivo): normal nuclei morphology in most of the cells with slight hydrophobic degeneration |
| COc1ccc(C2=NN(c3nc(-c4ccc(F)cc4)cs3)C(c3ccc(Cl)cc3)C2)cc1OC (stereo not shown) [Compound 6k, 2-(5-(4-Chlorophenyl)-3-(3,4-dimethoxyphenyl)-4,5-dihydro-1H-pyrazol-1-yl)-4-(4-fluorophenyl)thiazole] | 0.9042 | 8.02 | 8.02 ± 0.98 | ≥ 50 | 0.014 ± 0.001 | 14.38 | 8.06 | 22.44 | 5.24 fold and 5.24 ± 0.4 fold | 0.41 fold and 0.41 ± 0.09 fold | 5.79 fold and 5.79 ± 0.4 fold | 3.91 fold and 3.91 ± 0.42 fold | 6.07 fold and 6.07 ± 0.23 fold | 3.91 fold and 3.91 ± 0.50 fold | IC50 [16]: 0.027 ± 0.002 µM; percentage of cells in the G2/M phase ([7]; printed 'reduced by', control 9.7%): 2.01% |
